Drawing on US11976057B2, “MrgX2 antagonists” (GlaxoSmithKline Intellectual Property Development Limited, priority 2020, dated 2024), this text covers IC50 for 27 compounds.

Some results are limits rather than exact numbers.

This assay deals with T1, human MRGPRX2 (Homo sapiens, UniProt Q96LB1).
T1 sequence (Q96LB1 1-330): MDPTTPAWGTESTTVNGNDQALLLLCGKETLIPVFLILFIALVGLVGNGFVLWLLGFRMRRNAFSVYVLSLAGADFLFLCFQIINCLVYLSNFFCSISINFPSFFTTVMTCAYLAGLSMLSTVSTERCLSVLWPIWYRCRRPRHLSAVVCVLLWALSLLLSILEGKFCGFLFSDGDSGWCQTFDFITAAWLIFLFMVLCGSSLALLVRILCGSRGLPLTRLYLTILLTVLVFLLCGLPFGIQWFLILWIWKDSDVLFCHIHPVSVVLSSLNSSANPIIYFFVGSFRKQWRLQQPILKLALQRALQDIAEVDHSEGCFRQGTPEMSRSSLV
In words: Ca2+ mobilization assay (FLIPR TETRA): inhibition of Cortistatin-14 mediated MRGPRX2 activation.
In the case of `CNCc1cc([C@H]2CN([C@@H](C)C(=O)Nc3cnc(Oc4ccc(F)cc4F)cn3)CCC2(F)F)c[nH]c1=O` [Example 244, (S)-2-((S)-4,4-difluoro-3-(5-((methylamino)methyl)-6-oxo-1,6-dihydropyridin-3-yl)piperidin-1-yl)-N-(5-(2,4-difluorophenoxy)pyrazin-2-yl)propanamide], the IC50 was no more than 0.01 µM.

As for `C[C@@H](C(=O)Nc1ccc(OCC2CC2)cn1)N1CCC[C@@H](c2ccc(=O)[nH]n2)C1` (single isomer, unassigned) [Example 185], the IC50 is 0.1 to 3.16 µM.

`CC(C(=O)Nc1ccc(Oc2ccc(F)cc2)cn1)N1CCC(F)(F)C(c2c[nH]c(=O)c(CN(C)C)c2)C1` (stereo not drawn) [Example 230, 2-(3-(5-((dimethylamino)methyl)-6-oxo-1,6-dihydropyridin-3-yl)-4,4-difluoropiperidin-1-yl)-N-(5-(4-fluorophenoxy)pyridin-2-yl)propanamide]: the IC50 fell in the range of 0.01 to 0.1 µM.

Turning to `C[C@@H](C(=O)Nc1ccc(C(=O)OC2CCCC2)cn1)N1CCC(F)(F)[C@@H](c2ccc(=O)[nH]c2)C1` [Example 46, cyclopentyl 6-((S)-2-((S)-4,4-difluoro-3-(6-oxo-1,6-dihydropyridin-3-yl)piperidin-1-yl)propanamido) nicotinate], the IC50 lay within 0.1 to 3.16 µM.

Consider `C[C@@H](C(=O)Nc1ccc(OCC2CC2)cn1)N1CCC(F)(F)[C@@H](c2ccc(=O)n(CC(F)(F)F)c2)C1` (single isomer, unassigned) [Example 2], for which the half-inhibitory concentration (IC50) was no more than 0.01 µM.

In turn, `C[C@@H](C(=O)Nc1ccc(Oc2ccc(F)cc2F)cn1)N1CCC(F)(F)[C@@H](c2c[nH]c(=O)c(CN3CCC(F)(F)CC3)c2)C1` [Example 240, (S)-N-(5-(2,4-difluorophenoxy)pyridin-2-yl)-2-((S)-3-(5-((4,4-difluoropiperidin-1-yl)methyl)-6-oxo-1,6-dihydropyridin-3-yl)-4,4-difluoropiperidin-1-yl)propanamide] displayed an IC50 of no more than 0.01 µM.

For the compound `C[C@@H](C(=O)Nc1ccc(Oc2ccccc2)nn1)N1CCC(F)(F)[C@@H](c2ccc(=O)[nH]c2)C1` [Example 19, 2-((S)-4,4-difluoro-3-(6-oxo-1,6-dihydropyridin-3-yl)piperidin-1-yl)-N-(6-phenoxy-pyridazin-3-yl)propanamide], the IC50 lay within 0.1 to 3.16 µM.

Take `C[C@@H](C(=O)Nc1cnc(Oc2ccc(F)cc2)cn1)N1CCC(F)(F)[C@@H](c2ccc(=O)[nH]c2)C1` [Example 68, (S)-2-((S)-4,4-difluoro-3-(6-oxo-1,6-dihydropyridin-3-yl)piperidin-1-yl)-N-(5-(4-fluorophenoxy)pyrazin-2-yl)propanamide]: the IC50 was in the range of 0.01 to 0.1 µM.

`CC(C)n1cc(C2CN([C@@H](C)C(=O)Nc3ccc(F)cn3)CCC2(F)F)ccc1=O` (stereo partly drawn) [Example 194, (2S)-2-(4,4-difluoro-3-(1-isopropyl-6-oxo-1,6-dihydropyridin-3-yl)piperidin-1-yl)-N-(5-fluoropyridin-2-yl)propanamide] yielded an IC50 of 0.1 to 3.16 µM.

In turn, `C[C@@H](C(=O)Nc1ccc(OCC2CC2)nn1)N1CCC(F)(F)C(c2ccc(=O)n(CCS(C)(=O)=O)c2)C1` (stereo partly drawn) [Example 191, (2S)-N-(6-(cyclopropylmethoxy)pyridazin-3-yl)-2-(4,4-difluoro-3-(1-(2-(methylsulfonyl)ethyl)-6-oxo-1,6-dihydropyridin-3-yl)piperidin-1-yl)propanamide] showed a concentration for half-maximal inhibition (IC50) of 0.1 to 3.16 µM.

The compound `C[C@@H](C(=O)Nc1ccc(Oc2ncc(F)cc2F)cn1)[C@H]1CCC[C@@H](c2ccc(=O)[nH]c2)C1` [Example 285, (R)-N-(5-((3,5-difluoropyridin-2-yl)oxy)pyridin-2-yl)-2-((1S,3R)-3-(6-oxo-1,6-dihydropyridin-3-yl)cyclohexyl)propanamide] had an IC50 of no more than 0.01 µM.

The compound `CC(C(=O)Nc1ccc(Oc2cccc(=O)[nH]2)cn1)N1CCC(F)(F)[C@@H](c2ccc(=O)[nH]c2)C1` (stereo partly drawn) [Example 267, 2-((S)-4,4-difluoro-3-(6-oxo-1,6-dihydropyridin-3-yl)piperidin-1-yl)-N-(5-((6-oxo-1,6-dihydropyridin-2-yl)oxy)pyridin-2-yl)propanamide] showed a 50% inhibitory concentration (IC50) of 0.01 to 0.1 µM.

`CC(C(=O)Nc1ccc(Oc2ncc(F)cc2C#N)cn1)N1CCC(F)(F)[C@@H](c2ccc(=O)[nH]c2)C1` (stereo partly drawn) [Example 92, N-(5-((3-cyano-5-fluoropyridin-2-yl)oxy)pyridin-2-yl)-2-((S)-4,4-difluoro-3-(6-oxo-1,6-dihydropyridin-3-yl)piperidin-1-yl)propanamide] came in with an IC50 of 0.01 to 0.1 µM.

`C[C@@H](C(=O)Nc1ccc(C2CCCC2)cn1)N1CCC(F)(F)[C@@H](c2ccc(=O)[nH]c2)C1` [Example 14, (S)-N-(5-cyclopentyl-pyridin-2-yl)-2-((S)-4,4-difluoro-3-(6-oxo-1,6-dihydropyridin-3-yl)piperidin-1-yl)propanamide]: the IC50 fell in the range of 0.01 to 0.1 µM.

Consider `C[C@@H](C(=O)Nc1ccc(Oc2ccc(F)cc2F)cn1)N1CCC(F)(F)[C@@H](c2c[nH]c(=O)c(CNC3CC(F)(F)C3)c2)C1` [Example 241, (S)-2-((S)-3-(5-(((3,3-difluorocyclobutyl)amino)methyl)-6-oxo-1,6-dihydropyridin-3-yl)-4,4-difluoropiperidin-1-yl)-N-(5-(2,4-difluorophenoxy)pyridin-2-yl)propanamide], for which the IC50 is no more than 0.01 µM.

For `CC(C(=O)Nc1ccc(CCC2CC2)cn1)N1CCC(F)(F)[C@@H](c2ccc(=O)[nH]c2)C1` (stereo partly drawn) [Example 21, N-(5-(2-cyclopropylethyl)pyridin-2-yl)-2-((S)-4,4-difluoro-3-(6-oxo-1,6-dihydropyridin-3-yl)piperidin-1-yl)propanamide], the concentration for half-maximal inhibition (IC50) lay in the range of 0.01 to 0.1 µM.

In turn, `C[C@@H](C(=O)Nc1ccc(Oc2ccc(F)cc2)cn1)N1CCC(F)(F)[C@@H](c2c[nH]c(=O)c(C(N)=O)c2)C1` [Example 252, 5-((S)-4,4-difluoro-1-((S)-1-((5-(4-fluorophenoxy)pyridin-2-yl)amino)-1-oxopropan-2-yl)piperidin-3-yl)-2-oxo-1,2-dihydropyridine-3-carboxamide] had an IC50 of no more than 0.01 µM.

The compound `CC(C(=O)Nc1ccc(Oc2ccc(C#N)cc2)cn1)N1CCC(F)(F)C(c2ccc(=O)[nH]c2)C1` (stereo not drawn) [Example 58, N-(5-(4-cyanophenoxy)pyridin-2-yl)-2-(4,4-difluoro-3-(6-oxo-1,6-dihydropyridin-3-yl)piperidin-1-yl)propanamide] returned an IC50 of 0.1 to 3.16 µM.

Compound `CC(C(=O)Nc1ccc(OCC2CCCC2)cn1)N1CCC(F)(F)[C@@H](c2ccc(=O)[nH]c2)C1` (stereo partly drawn) [Example 47, N-(5-(cyclopentyl-methoxy)pyridin-2-yl)-2-((S)-4,4-difluoro-3-(6-oxo-1,6-dihydropyridin-3-yl)piperidin-1-yl)propanamide] came in with an IC50 of 0.1 to 3.16 µM.

With `C[C@@H](C(=O)Nc1ccc(Cl)cn1)N1CCC[C@@H](c2ccc(=O)n(C)c2)C1` [Example 176, (S)—N-(5-chloropyridin-2-yl)-2-((S)-3-(1-methyl-6-oxo-1,6-dihydropyridin-3-yl)piperidin-1-yl)propanamide], the IC50 lay within 3.16 to 31.6 µM.

For `C[C@@H](C(=O)Nc1ccc(Oc2ccc(F)cc2)cn1)N1CCC(F)(F)[C@@H](c2c[nH]c(=O)c(CS(C)(=O)=O)c2)C1` [Example 214, (S)-2-((S)-4,4-difluoro-3-(5-((methylsulfonyl)methyl)-6-oxo-1,6-dihydropyridin-3-yl)piperidin-1-yl)-N-(5-(4-fluorophenoxy)pyridin-2-yl)propanamide], the IC50 is no more than 0.01 µM.

Take `C[C@@H](C(=O)Nc1ccc(C(=O)c2ccc(F)cc2)cn1)N1CCC(F)(F)[C@@H](c2cc[n+]([O-])cc2)C1` [Example 128, 4-((S)-4,4-difluoro-1-((S)-1-((5-(4-fluorobenzoyl)pyridin-2-yl)amino)-1-oxopropan-2-yl)piperidin-3-yl)pyridine 1-oxide]: the IC50 was 0.1 to 3.16 µM.

The compound `COc1cc(F)ccc1Oc1ccc(NC(=O)[C@H](C)N2CCC(F)(F)[C@@H](c3ccc(=O)[nH]c3)C2)nc1` [Example 269] showed an IC50 of no more than 0.01 µM.

`C[C@@H](C(=O)Nc1ccc(F)cn1)N1CCC(F)(F)[C@@H](c2cn(CC(F)(F)F)c(=O)cn2)C1` (single isomer, unassigned) [Example 103]: the concentration for half-maximal inhibition (IC50) is no more than 0.01 µM.

The compound `CC(N)c1cc(C2CN([C@@H](C)C(=O)Nc3ccc(OCC4CC4)nn3)CCC2(F)F)c[nH]c1=O` (stereo partly drawn) [Example 222, (2S)-2-(3-(5-(1-aminoethyl)-6-oxo-1,6-dihydropyridin-3-yl)-4,4-difluoropiperidin-1-yl)-N-(6-(cyclopropylmethoxy)pyridazin-3-yl)propanamide] returned an IC50 of 0.01 to 0.1 µM.

As for `C[C@@H](C(=O)Nc1ccc(OCC2CC2)nn1)N1CCC(F)(F)[C@@H](c2c[nH]c(=O)c([C@H](O)C(F)(F)F)c2)C1` (single isomer, unassigned) [Example 210, (S)-N-(6-(cyclopropylmethoxy)pyridazin-3-yl)-2-((S)-4,4-difluoro-3-(6-oxo-5-((S)-2,2,2-trifluoro-1-hydroxyethyl)-1,6-dihydropyridin-3-yl)piperidin-1-yl)propanamide or (S)-N-(6-(cyclopropylmethoxy(pyridazin-3-yl)-2-((S)-4,4-difluoro-3-(6-oxo-5-((R)-2,2,2-trifluoro-1-hydroxyethyl)-1,6-dihydroypridin-3-yl)piperidin-1-yl)propanamide], the IC50 was no more than 0.01 µM.

For the compound `CC(C(=O)Nc1ccc(CC2CC2)cn1)N1CCC(F)(F)[C@@H](c2ccc(=O)[nH]c2)C1` (stereo partly drawn) [Example 41, N-(5-(cyclopropyl-methyl)pyridin-2-yl)-2-((S)-4,4-difluoro-3-(6-oxo-1,6-dihydropyridin-3-yl)piperidin-1-yl)propanamide], the IC50 was in the range of 0.1 to 3.16 µM.

One may read the IC50 as the midpoint of a concentration-inhibition curve.
